Experimental findings from ChEMBL document CHEMBL1782024, “Chisomicines A-C, limonoids from Chisocheton ceramicus” (J Nat Prod, 2011) are described below.

Activity calls are given as the source filed them. The rule behind the calls is not given here.

One data set concerns J774.1. The data set can be described thus: Inhibition of LPS-induced nitric oxide production in mouse J774.1 cells after 24 hrs by griess assay. In kind it is functional, cell-based. The conditions noted are these: for IC50: J774.1, 24 h. Background: Nitrite, measured by Griess reagent, commonly stands in for NO production.
A short description of data set [1]: Cytotoxicity against mouse J774.1 cells after 2 hrs by MTT assay. In kind it is cell-based. Conditions: j774.1, 2 h. (Tetrazolium dyes change colour on reduction, which living cells bring about.)

Take `C/C=C(\C)C(=O)O[C@@H]1C2[C@H]3O[C@]34[C@@H]3CC(=O)O[C@@H](c5ccoc5)[C@]3(C)CC[C@@H]4[C@@]3(C)[C@@H](CC(=O)OC)[C@@]1(C)C[C@@]23O` (some centres not stated): the inhibition entry with J774.1 is “inactive”.

With `C/C=C(\C)C(=O)O[C@@H]1C2C=C3[C@H](CC[C@@]4(C)[C@H](c5ccoc5)OC(=O)C[C@@]34O)[C@@]3(C)[C@@H](CC(=O)OC)[C@@]1(C)CO[C@@]23O`, the inhibition result with J774.1 is “inactive”.

In the case of `COC(=O)C[C@H]1C(C)(C)[C@H](O)[C@@H]2CC3=C4CC(=O)O[C@@H](c5ccoc5)[C@]4(C)CC[C@@H]3[C@@]1(C)C2=O`, the inhibition result with J774.1 is “inactive”.

Turning to `C/C=C(\C)C(=O)O[C@@H]1/C=C\C2=C3CC(=O)O[C@@H](c4ccoc4)[C@]3(C)CC[C@@H]2[C@@]2(C)C(=O)C[C@]1(C)[C@@H]2CC(=O)OC` [CHISOMICINE A], in data set [1], the Activity entry is given as “Toxic”. Moreover, in the data set with J774.1, the IC50 amounted to 20.2 µM.

Take `COC(=O)C[C@H]1C(C)(C)[C@@H]2O[C@@]34C[C@@H]2C(=O)[C@]1(C)[C@H]3CC[C@]1(C)C4CC(=O)O[C@@H]1c1ccoc1` (some centres not stated): the inhibition result with J774.1 is “inactive”.

Regarding `CNC(=N)NCCC[C@H](N)C(=O)O` [TILARGININE], the IC50 with J774.1 stood at 13.8 µg/mL.

The IC50 is the concentration that gives 50% inhibition.
